This passage reports inhibition results from US20250002464A1, “NOVEL COMPOUND AND PHARMACEUTICAL COMPOSITION COMPRISING SAME” (SAPIENSBIO INC., priority 2021, published 2025).

Where only a bound is given, the exact number is not on record here.

The subject of this test is α-SMA. The experiment in a line: α-SMA expression inhibitory ability in MRC5 cell line (Western blotting). In kind it is cell-based. Conditions: TGF-β1 (10 ng/mL), 72 hours, relative to TGF-β1 only. The procedure: Subsequently, the inhibitory effect on pulmonary fibrosis of the compounds according to the present invention was overall evaluated. An MRC5 cell line was treated with each compound at 10 μM, and 2 hours later, treated with TGF-β1 (10 ng/mL). After 72 hours, the cells were lysed using RIPA Buffer, and then an α-SMA protein level was measured through Western blotting. The α-SMA expression level when treating the cells with each compound and TGF-β1 compared to the α-SMA expression level when treating the cells only with TGF-β1 without the compound was calculated as the α-SMA expression inhibitory ability of the corresponding compound. The α-SMA expression inhibitory ability of each compound is summarized in Table 2 below (A: inhibitory ability≥70%, B: 50%: inhibitory ability<70%, C: inhibitory ability<50%).
In general terms: Immunoblotting shows a protein as a band on a membrane.
For `CC(C(=O)N1CCN(c2cccc(Cl)c2)c2ccccc21)N1CCN(C)CC1` (stereo not drawn) [Compound 137, 1-(4-(3-chlorophenyl)-3,4-dihydroquinoxaline-1(2H)-yl)-2-(4-methylpiperazin-1-yl)propan-1-one], the inhibition (in general, how much of the control response was suppressed) at 10 µM is at least 70%. The same measure for `C[C@@H]1CCCCN1CCC(=O)N1CCN(c2ccc(F)cc2)c2ccccc21` [Compound 19, (R)-1-(4-(4-fluorophenyl)-3,4-dihydroquinoxaline-1(2H)-yl)-3-(2-methylpiperidin-1-yl)propan-1-one]: below 50%; for `N[C@@H](Cc1c[nH]cn1)C(=O)N1CCN(c2ccc(F)cc2)c2cc(F)ccc21` [Compound 47, (S)-2-amino-1-(6-fluoro-4-(4-fluorophenyl)-3,4-dihydroquinoxaline-1(2H)-yl)-3-(1H-imidazol-4-yl)propan-1-one]: 50 to 70%; for `O=C(CCN1CCCCC1)N1CCN(CC2CC2)c2ccccc21` [Compound 162, 1-(4-(cyclopropylmethyl)-3,4-dihydroquinoxaline-1(2H)-yl)-3-(piperidin-1-yl)propan-1-one]: below 50%. The same measure for `O=C(CCc1cnc[nH]1)N1CCN(c2ccc(F)cc2)c2cc(F)ccc21` [Compound 46, 1-(6-fluoro-4-(4-fluorophenyl)-3,4-dihydroquinoxaline-1(2H)-yl)-3-(1H-imidazol-5-yl)propan-1-one]: at least 70%; for `CC(C(=O)N1CCN(c2ccccc2)c2cc(F)ccc21)N1CCN(C)CC1` (stereo not drawn) [Compound 11, 1-(6-fluoro-4-phenyl-3,4-dihydroquinoxaline-1(2H)-yl)-2-(4-methylpiperazin-1-yl)propan-1-one]: 50 to 70%; for `O=C(CN1CCCC1)N1CCN(Cc2cccc(Cl)c2)c2ccccc21` [Compound 102, 1-(4-(3-chlorobenzyl)-3,4-dihydroquinoxaline-1(2H)-yl)-2-(pyrrolidin-1-yl)ethan-1-one]: below 50%. On to `CC(C(=O)N1CCN(c2ccc(F)cc2)c2cc(F)ccc21)N1CCCC[C@H]1C` (stereo partly drawn) [Compound 49, 1-(6-fluoro-4-(4-fluorophenyl)-3,4-dihydroquinoxaline-1(2H)-yl)-2-((R)-2-methylpiperidin-1-yl)propan-1-one], for which the inhibition at 10 µM was below 50%.

Consider `O=C(CN1CCCCC1)N1CCN(Cc2ccccc2Cl)c2ccccc21` [Compound 94, 1-(4-(2-chlorobenzyl)-3,4-dihydroquinoxaline-1(2H)-yl)-2-(piperidin-1-yl)ethan-1-one], for which the inhibition at 10 µM lay in the range of 50 to 70%.

Take `CN1CCN(CC(=O)N2CCN(c3ccccc3Cl)c3ccccc32)CC1` [Compound 133, 1-(4-(2-chlorophenyl)-3,4-dihydroquinoxaline-1(2H)-yl)-2-(4-methylpiperazin-1-yl)ethan-1-one]: the inhibition at 10 µM fell in the range of 50 to 70%. The same measure for `CN1CCN(CCC(=O)N2CCN(c3ccc(F)cc3)c3ccccc32)CC1` [Compound 17, 1-(4-(4-fluorophenyl)-3,4-dihydroquinoxaline-1(2H)-yl)-3-(4-methylpiperazin-1-yl)propan-1-one di-p-toluene sulfonate]: 50 to 70%; for `CC(C)CN1CCN(C(=O)CCN2CCCCC2)c2ccccc21` [Compound 169, 1-(4-isobutyl-3,4-dihydroquinoxaline-1(2H)-yl)-3-(piperidin-1-yl)propan-1-one]: 50 to 70%; for `C[C@@H]1CCCN1CCC(=O)N1CCN(c2ccccc2)c2ccccc21` [Compound 57, (R)-3-(2-methylpyrrolidin-1-yl)-1-(4-phenyl-3,4-dihydroquinoxaline-1(2H)-yl)propan-1-one]: below 50%. The compound `O=C(CN1CCCC1)N1CCN(C2CCCCC2)c2ccccc21` [Compound 193, 1-(4-cyclohexyl-3,4-dihydroquinoxaline-1(2H)-yl)-2-(pyrrolidin-1-yl)ethan-1-one] came in with an inhibition at 10 µM below 50%.

`CC(C(=O)N1CCN(c2ccccc2)c2cc(F)ccc21)N1CCCC[C@H]1C` (stereo partly drawn) [Compound 8, 1-(6-fluoro-4-phenyl-3,4-dihydroquinoxaline-1(2H)-yl)-2-((R)-2-methylpiperidin-1-yl)propan-1-one] showed an inhibition at 10 µM below 50%.

With `CC(C)CN1CCN(C(=O)C(C)N2CCN(C)CC2)c2ccccc21` (stereo not drawn) [Compound 173, 1-(4-isobutyl-3,4-dihydroquinoxaline-1(2H)-yl)-2-(4-methylpiperazin-1-yl)propan-1-one], the inhibition at 10 µM was 50 to 70%. The same measure for `O=C(CN1CCCCC1)N1CCN(c2ccccc2Cl)c2ccccc21` [Compound 132, 1-(4-(2-chlorophenyl)-3,4-dihydroquinoxaline-1(2H)-yl)-2-(piperidin-1-yl)ethan-1-one]: 50 to 70%; for `CN1CCN(CCC(=O)N2CCN(c3ccccc3)c3cc(F)ccc32)CC1` [Compound 4, 1-(6-fluoro-4-phenyl-3,4-dihydroquinoxaline-1(2H)-yl)-3-(4-methylpiperazin-1-yl)propan-1-one]: 50 to 70%; for `CN1CCN(CC(=O)N2CCN(Cc3cccc(Cl)c3)c3ccccc32)CC1` [Compound 104, 1-(4-(3-chlorobenzyl)-3,4-dihydroquinoxaline-1(2H)-yl)-2-(4-methylpiperazin-1-yl)ethan-1-one]: at least 70%. For `CN1CCN(CC(=O)N2CCN(Cc3ccccc3Cl)c3ccccc32)CC1` [Compound 95, 1-(4-(2-chlorobenzyl)-3,4-dihydroquinoxaline-1(2H)-yl)-2-(4-methylpiperazin-1-yl)ethan-1-one] the value was 50 to 70%; for `O=C(CN1CCCCC1)N1CCN(C2CCCCC2)c2ccccc21` [Compound 194, 1-(4-cyclohexyl-3,4-dihydroquinoxaline-1(2H)-yl)-2-(piperidin-1-yl)ethan-1-one], below 50%; for `CN1CCN(CCC(=O)N2CCN(Cc3ccccc3)c3ccccc32)CC1` [Compound 80, 1-(4-benzyl-3,4-dihydroquinoxaline-1(2H)-yl)-3-(4-methylpiperazin-1-yl)propan-1-one], 50 to 70%. For `O=C(CCN1CCCC1)N1CCN(Cc2ccncc2)c2ccccc21` [Compound 122, 1-(4-(pyridin-4-ylmethyl)-3,4-dihydroquinoxaline-1(2H)-yl)-3-(pyrrolidin-1-yl)propan-1-one] the value was 50 to 70%; for `CC(C(=O)N1CCN(C(C)C)c2ccccc21)N1CCCCC1` (stereo not drawn) [Compound 181, 1-(4-isopropyl-3,4-dihydroquinoxaline-1(2H)-yl)-2-(piperidin-1-yl)propan-1-one], below 50%; for `CC(C(=O)N1CCN(C(=O)c2ccccc2)c2ccccc21)N1CCN(C)CC1` (stereo not drawn) [Compound 201, 1-(4-benzoyl-3,4-dihydroquinoxaline-1(2H)-yl)-2-(4-methylpiperazin-1-yl)propan-1-one], below 50%. Compound `CC(C(=O)N1CCN(CC2CC2)c2ccccc21)N1CCN(C)CC1` (stereo not drawn) [Compound 166, 1-(4-(cyclopropylmethyl)-3,4-dihydroquinoxaline-1(2H)-yl)-2-(4-methylpiperazin-1-yl)propan-1-one] displayed an inhibition at 10 µM below 50%. For `CN1CCN(CC(=O)N2CCN(c3cccc(Cl)c3)c3ccccc32)CC1` [Compound 139, 1-(4-(3-chlorophenyl)-3,4-dihydroquinoxaline-1(2H)-yl)-2-(4-methylpiperazin-1-yl)ethan-1-one] the value was at least 70%.
